From patent US8232401B2 (Japan Tobacco Inc., priority 2002, dated 2012)

Target: T1, HIV integrase (Human immunodeficiency virus type 1 group M subtype B, UniProt P12497, F1332H)
T1 construct: HIV integrase full length gene; made in house; host or cells: Escherichia coli BL21(DE3)
Assay: Determination of enzyme (HIV integrase) inhibitory activity (strand transfer, microtiter plate, absorbance at 450 nm)
Assay type: biochemical, HIV (Human Immunodeficiency Virus (type 1))
Conditions: recombinant HIV integrase (F185H) expressed in E. coli; donor DNA on streptavidin plate, digoxigenin target DNA; 37° C.

| SMILES | IC50 |
| --- | --- |
| CN(C)c1cc2c(cc1Cc1cccc(Cl)c1F)c(=O)c(C(=O)O)cn2CCO [Example 3-62, 6-(3-Chloro-2-fluorobenzyl)-7-dimethylamino-1-(2-hydroxyethyl)-4-oxo-1,4-dihydroquinoline-3-carboxylic acid] | 27 nM |
| O=C(O)c1cn(CCO)c2cc(OCC3CCCCC3)c(Cc3cccc(Cl)c3F)cc2c1=O [Example 3-63, 6-(3-Chloro-2-fluorobenzyl)-7-cyclohexylmethoxy-1-(2-hydroxyethyl)-4-oxo-1,4-dihydroquinoline-3-carboxylic acid] | 17 nM |
| CCN(CC)c1cc(Cc2cccc(Cl)c2F)cc2c(=O)c(C(=O)O)cn(CCO)c12 [Example 3-64, 6-(3-Chloro-2-fluorobenzyl)-8-diethylamino-1-(2-hydroxyethyl)-4-oxo-1,4-dihydroquinoline-3-carboxylic acid] | 18 nM |
| CNc1cc2c(cc1Cc1cccc(Cl)c1F)c(=O)c(C(=O)O)cn2CCO [Example 3-65, 6-(3-Chloro-2-fluorobenzyl)-7-methylamino-1-(2-hydroxyethyl)-4-oxo-1,4-dihydroquinoline-3-carboxylic acid] | 15 nM |
| O=C(O)c1cn(CCO)c2cc(N3CCCC3)c(Cc3cccc(Cl)c3F)cc2c1=O [Example 3-66, 6-(3-Chloro-2-fluorobenzyl)-1-(2-hydroxyethyl)-4-oxo-7-pyrrolidin-1-yl-1,4-dihydroquinoline-3-carboxylic acid] | 48 nM |
| CCOc1cc(Cc2cccc(Cl)c2F)cc2c(=O)c(C(=O)O)cn([C@@H](C)CO)c12 [Example 3-67, (S)-6-(3-Chloro-2-fluorobenzyl)-8-ethoxy-1-(2-hydroxy-1-methylethyl)-4-oxo-1,4-dihydroquinoline-3-carboxylic acid] | 6.4 nM |
| O=C(O)c1cn(CCO)c2c(OCC3CCCCC3)cc(Cc3cccc(Cl)c3F)cc2c1=O [Example 3-69, 6-(3-Chloro-2-fluorobenzyl)-8-cyclohexylmethoxy-1-(2-hydroxyethyl)-4-oxo-1,4-dihydroquinoline-3-carboxylic acid] | 4.3 nM |
| CC[C@@H](CO)n1cc(C(=O)O)c(=O)c2cc(Cc3cccc(Cl)c3F)c(OC(C)C)cc21 [Example 3-72, (S)-6-(3-Chloro-2-fluorobenzyl)-1-[1-(hydroxymethyl)propyl]-7-isopropyloxy-4-oxo-1,4-dihydroquinoline-3-carboxylic acid] | 3.8 nM |
| CC[C@@H](CO)n1cc(C(=O)O)c(=O)c2cc(Cc3cccc(Cl)c3F)c(OC)cc21 [Example 3-73, (S)-6-(3-Chloro-2-fluorobenzyl)-1-[1-(hydroxymethyl)propyl]-7-methoxy-4-oxo-1,4-dihydroquinoline-3-carboxylic acid] | 3.3 nM |
| CC(C)Oc1cc2c(cc1Cc1cccc(Cl)c1F)c(=O)c(C(=O)O)cn2[C@@H](C)CO [Example 3-74] | 4.9 nM |
| O=C(O)c1cn(CCO)c2cc(OCCO)c(Cc3cccc(Cl)c3F)cc2c1=O [Example 3-76, 6-(3-Chloro-2-fluorobenzyl)-1-(2-hydroxyethyl)-7-(2-hydroxyethyloxy)-4-oxo-1,4-dihydroquinoline-3-carboxylic acid] | 8.5 nM |
| O=C(O)c1cn(CCO)c2cc(OCCCO)c(Cc3cccc(Cl)c3F)cc2c1=O [Example 3-77, 6-(3-Chloro-2-fluorobenzyl)-1-(2-hydroxyethyl)-1-7-(3-hydroxypropyloxy)-4-oxo-1,4-dihydroquinoline-3-carboxylic acid] | 8.9 nM |
| O=C(O)c1cn(CCO)c2c(NCCO)cc(Cc3cccc(Cl)c3F)cc2c1=O [Example 3-78, 6-(3-Chloro-2-fluorobenzyl)-1-(2-hydroxyethyl)-8-(2-hydroxyethylamino)-4-oxo-1,4-dihydroquinoline-3-carboxylic acid] | 16 nM |
| CC[C@@H](CO)n1cc(C(=O)O)c(=O)c2cc(Cc3cccc(Cl)c3F)cc(OC)c21 [Example 3-79, (S)-6-(3-Chloro-2-fluorobenzyl)-1-[1-(hydroxymethyl)propyl]-8-methoxy-4-oxo-1,4-dihydroquinoline-3-carboxylic acid] | 6.7 nM |
| C[C@@H](CO)n1cc(C(=O)O)c(=O)c2cc(Cc3cccc(Cl)c3F)cc(N(C)C)c21 [Example 3-80, (S)-6-(3-Chloro-2-fluorobenzyl)-8-dimethylamino-1-(2-hydroxy-1-methylethyl)-4-oxo-1,4-dihydroquinoline-3-carboxylic acid] | 8.8 nM |
| O=C(O)c1cn(CCO)c2ncc(Cc3cccc(Cl)c3Cl)cc2c1=O [Example 3-86] | 140 nM |
| CS(=O)(=O)c1ccc(Cl)c(Cc2ccc3c(c2)c(=O)c(C(=O)O)cn3CCO)c1 [Example 4-1, 6-(2-Chloro-5-methanesulfonylbenzyl)-1-(2-hydroxyethyl)-4-oxo-1,4-dihydroquinoline-3-carboxylic acid] | 860 nM |
| CCc1ccccc1Cc1ccc2c(c1)c(=O)c(C(=O)O)cn2CCO [Example 4-4, 6-(2-Ethylbenzyl)-1-(2-hydroxyethyl)-4-oxo-1,4-dihydroquinoline-3-carboxylic acid] | 550 nM |

| SMILES | IC50 |
| --- | --- |
| O=C(O)c1cn(CCO)c2ccc(Cc3cc(F)ccc3Cl)cc2c1=O [Example 4-6, 6-(2-Chloro-5-fluorobenzyl)-1-(2-hydroxyethyl)-4-oxo-1,4-dihydroquinoline-3-carboxylic acid] | 460 nM |
| O=C(O)c1cn(CCO)c2ccc(Cc3cc(Br)ccc3Cl)cc2c1=O [Example 4-7, 6-(5-Bromo-2-chlorobenzyl)-1-(2-hydroxyethyl)-4-oxo-1,4-dihydroquinoline-3-carboxylic acid] | 130 nM |
| O=C(O)c1cn(CCO)c2cc(F)c(Cc3cccc(Cl)c3Cl)cc2c1=O [Example 4-9, 6-(2,3-Dichlorobenzyl)-7-fluoro-1-(2-hydroxyethyl)-4-oxo-1,4-dihydroquinoline-3-carboxylic acid] | 21 nM |
| O=C(O)c1cn(CCO)c2ccc(Cc3cc(O)ccc3Cl)cc2c1=O [Example 4-11, 6-(2-Chloro-5-hydroxybenzyl)-1-(2-hydroxyethyl)-4-oxo-1,4-dihydroquinoline-3-carboxylic acid] | 220 nM |
| O=C(O)c1cn(CCO)c2ccc(Cc3cccc(Cl)c3Cl)c(F)c2c1=O [Example 4-12, 6-(2,3-Dichlorobenzyl)-5-fluoro-1-(2-hydroxyethyl)-4-oxo-1,4-dihydroquinoline-3-carboxylic acid] | 65 nM |
| CCOc1ccccc1Cc1ccc2c(c1)c(=O)c(C(=O)O)cn2CCO [Example 4-13, 6-(2-Ethoxybenzyl)-1-(2-hydroxyethyl)-4-oxo-1,4-dihydroquinoline-3-carboxylic acid] | 300 nM |
| Cc1cc2c(cc1Cc1cccc(Cl)c1Cl)c(=O)c(C(=O)O)cn2CCO [Example 4-15, 6-(2,3-Dichlorobenzyl)-7-methyl-1-(2-hydroxyethyl)-4-oxo-1,4-dihydroquinoline-3-carboxylic acid] | 31 nM |
| CC(C)Oc1cc(Cc2cccc(Cl)c2F)cc2c(=O)c(C(=O)O)cn([C@@H](C)CO)c12 [Example 4-16, (S)-6-(3-Chloro-2-fluorobenzyl)-1-(2-hydroxy-1-methylethyl)-8-isopropyloxy-4-oxo-1,4-dihydroquinoline-3-carboxylic acid] | 7.1 nM |
| CC[C@@H](CO)n1cc(C(=O)O)c(=O)c2cc(Cc3cccc(Cl)c3F)cc(OC(C)C)c21 [Example 4-17, (S)-6-(3-Chloro-2-fluorobenzyl)-1-[1-(hydroxymethyl)propyl]-8-isopropyloxy-4-oxo-1,4-dihydroquinoline-3-carboxylic acid] | 3.1 nM |
| O=C(O)c1cn([C@H](CO)C2CCCCC2)c2ccc(Cc3cccc(Cl)c3F)cc2c1=O [Example 4-18, (S)-6-(3-Chloro-2-fluorobenzyl)-1-(1-cyclohexyl-2-hydroxyethyl)-4-oxo-1,4-dihydroquinoline-3-carboxylic acid] | 2 nM |
| CC(C)Oc1cc2c(cc1Cc1cccc(Cl)c1F)c(=O)c(C(=O)O)cn2[C@H](CO)C(C)C [Example 4-19, (S)-6-(3-Chloro-2-fluorobenzyl)-1-(1-hydroxymethyl-2-methylpropyl)-7-isopropyloxy-4-oxo-1,4-dihydroquinoline-3-carboxylic acid] | 2.9 nM |
| CC(C)Oc1cc2c(cc1Cc1cccc(Cl)c1F)c(=O)c(C(=O)O)cn2[C@H](CO)C(C)(C)C [Example 4-20, (S)-6-(3-Chloro-2-fluorobenzyl)-1-[2,2-dimethyl-1-(hydroxymethyl)propyl]-7-isopropyloxy-4-oxo-1,4-dihydroquinoline-3-carboxylic acid] | 1.7 nM |
| CCOc1cc(Cc2cccc(Cl)c2F)cc2c(=O)c(C(=O)O)cn([C@@H](CC)CO)c12 [Example 4-21, (S)-6-(3-Chloro-2-fluorobenzyl)-8-ethoxy-1-[1-(hydroxymethyl)propyl]-4-oxo-1,4-dihydroquinoline-3-carboxylic acid] | 4.5 nM |
| O=C(O)c1cn([C@H](CO)CC2CCCCC2)c2ccc(Cc3cccc(Cl)c3F)cc2c1=O [Example 4-22, (S)-6-(3-Chloro-2-fluorobenzyl)-1-[2-cyclohexyl-1-(hydroxymethyl)ethyl]-4-oxo-1,4-dihydroquinoline-3-carboxylic acid] | 2.9 nM |
| CC(C)C[C@@H](CO)n1cc(C(=O)O)c(=O)c2cc(Cc3cccc(Cl)c3F)c(OC(C)C)cc21 [Example 4-23, (S)-6-(3-Chloro-2-fluorobenzyl)-1-(1-hydroxymethyl-3-methylbutyl)-7-isopropyloxy-4-oxo-1,4-dihydroquinoline-3-carboxylic acid] | 3.8 nM |
| CC(C)Oc1cc(Cc2cccc(Cl)c2F)cc2c(=O)c(C(=O)O)cn([C@H](CO)C(C)C)c12 [Example 4-24, (S)-6-(3-Chloro-2-fluorobenzyl)-1-(1-hydroxymethyl-2-methylpropyl)-8-isopropyloxy-4-oxo-1,4-dihydroquinoline-3-carboxylic acid] | 2.5 nM |
| CC(C)C[C@@H](CO)n1cc(C(=O)O)c(=O)c2cc(Cc3cccc(Cl)c3F)cc(OC(C)C)c21 [Example 4-25, (S)-6-(3-Chloro-2-fluorobenzyl)-1-(1-hydroxymethyl-3-methylbutyl)-8-isopropyloxy-4-oxo-1,4-dihydroquinoline-3-carboxylic acid] | 1.9 nM |
